For assay [1], the system named is Human alphaherpesvirus 1. Description: Polymerizing activity of exonuclase deficient HSV1 DNA polymerase UL42 D368A mutant assessed as rate of nucleotide incorporation by pre-steady state single turnover assay.
The nature of assay [2]: Binding affinity to exonuclase deficient HSV1 DNA polymerase UL42 D368A mutant. Also on record: species or system Human alphaherpesvirus 1.
Assay [3] relates to Human alphaherpesvirus 1. Briefly: Ratio of polymerization constant K to Kd for exonuclase deficient HSV1 DNA polymerase UL42 D368A mutant.
For assay [4], the system named is T1, DNA polymerase subunit gamma-1 (Homo sapiens), P54098 [E200A].
T1 sequence (whole entry): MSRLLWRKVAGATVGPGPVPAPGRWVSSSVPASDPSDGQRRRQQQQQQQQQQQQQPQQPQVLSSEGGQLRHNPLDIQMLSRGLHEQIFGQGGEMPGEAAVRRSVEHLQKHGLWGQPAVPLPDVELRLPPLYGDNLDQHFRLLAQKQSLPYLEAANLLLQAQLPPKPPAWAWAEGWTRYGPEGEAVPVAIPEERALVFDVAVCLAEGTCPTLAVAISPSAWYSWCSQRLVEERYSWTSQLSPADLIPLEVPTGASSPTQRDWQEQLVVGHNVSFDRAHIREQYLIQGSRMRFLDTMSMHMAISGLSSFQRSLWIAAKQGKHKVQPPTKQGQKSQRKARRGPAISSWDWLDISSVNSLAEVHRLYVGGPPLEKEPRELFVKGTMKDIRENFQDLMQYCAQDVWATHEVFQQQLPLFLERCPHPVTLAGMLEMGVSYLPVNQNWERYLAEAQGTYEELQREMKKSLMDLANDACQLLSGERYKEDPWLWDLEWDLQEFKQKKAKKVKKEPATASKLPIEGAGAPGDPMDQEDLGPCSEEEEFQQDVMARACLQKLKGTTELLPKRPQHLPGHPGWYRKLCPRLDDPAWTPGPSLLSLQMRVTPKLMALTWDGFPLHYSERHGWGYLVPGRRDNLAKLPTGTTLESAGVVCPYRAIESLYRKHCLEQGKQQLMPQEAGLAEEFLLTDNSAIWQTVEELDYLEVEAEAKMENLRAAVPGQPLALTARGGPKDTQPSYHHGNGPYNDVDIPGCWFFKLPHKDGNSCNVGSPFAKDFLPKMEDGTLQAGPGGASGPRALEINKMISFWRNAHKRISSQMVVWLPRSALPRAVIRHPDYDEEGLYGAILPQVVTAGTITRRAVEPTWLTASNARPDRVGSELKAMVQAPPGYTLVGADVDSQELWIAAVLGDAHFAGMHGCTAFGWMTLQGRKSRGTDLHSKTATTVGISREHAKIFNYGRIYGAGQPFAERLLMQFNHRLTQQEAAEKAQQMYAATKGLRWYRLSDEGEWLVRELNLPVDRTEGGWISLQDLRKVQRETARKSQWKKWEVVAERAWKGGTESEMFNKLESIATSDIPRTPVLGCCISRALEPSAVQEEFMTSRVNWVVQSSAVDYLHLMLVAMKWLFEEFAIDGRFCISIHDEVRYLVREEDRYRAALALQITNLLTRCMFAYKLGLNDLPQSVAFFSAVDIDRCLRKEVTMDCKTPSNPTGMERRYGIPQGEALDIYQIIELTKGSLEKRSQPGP
Briefly: Polymerizing activity of exonuclase deficient human recombinant DNA polymerase gamma E200A mutant assessed as rate of nucleotide incorporation by pre-steady state single nucleotide incorporation assay.

For assay [5] the test system is unchanged. Description: Ratio of polymerization constant K to Kd for human recombinant DNA polymerase gamma E200A mutant.
Assay [6] concerns the target DNA polymerase subunit gamma-1 (Homo sapiens, UniProt P54098, E200A). Description: Binding affinity to exonuclase deficient human recombinant DNA polymerase gamma E200A mutant.
Assay [7] deals with Human alphaherpesvirus 1. Briefly: Activity of wild type HSV1 DNA polymerase UL42 assessed as rate of excision of compound from correctly paired DNA primer during fast phase of excision.
Assay [8] concerns Human alphaherpesvirus 1. Briefly: Activity of wild type HSV1 DNA polymerase UL42 assessed as amplitude of excision of compound from correctly paired DNA primer during fast phase of excision.
In assay [9] the test system is Human alphaherpesvirus 1. Description: Activity of wild type HSV1 DNA polymerase UL42 assessed as rate of excision of compound from 3'-frayed DNA primer with 8 mispaired bases at 3' end during fast phase of excision.
Assay [10] concerns Human alphaherpesvirus 1. Description: Activity of wild type HSV1 DNA polymerase UL42 assessed as amplitude of excision of compound from 3'-frayed DNA primer with 8 mispaired bases at 3' end during fast phase of excision.
Assay [11] deals with Human alphaherpesvirus 1. Briefly: Activity of wild type HSV1 DNA polymerase UL42 assessed as rate of excision of compound from correctly paired DNA primer during fast phase of excision in presence of 100 uM dNTPs.
Assay [12] has as its system Human alphaherpesvirus 1. Briefly: Activity of wild type HSV1 DNA […] UL42 assessed as amplitude of excision of compound from correctly paired DNA primer during fast phase of excision in presence of 100 uM dNTPs.
In assay [13] the test system is Human alphaherpesvirus 1. Briefly: Activity of wild type HSV1 DNA polymerase UL42 assessed as rate of excision of compound from 3'-frayed DNA primer with 8 mispaired bases at 3' end during fast phase of excision in presence of 100 uM dNTPs.
Assay [14] relates to Human alphaherpesvirus 1. Description: Activity of wild type HSV1 DNA polymerase UL42 assessed as amplitude of excision of compound from 3'-frayed DNA primer with 8 mispaired bases at 3' end during fast phase of excision in presence of 100 uM dNTPs.
The species named for assay [15] is Homo sapiens. Briefly: Activity of human wild type DNA polymerase gamma assessed as rate of excision of compound from correctly paired DNA primer during fast phase of excision.
The species named for assay [16] is Homo sapiens. Briefly: Activity of human wild type DNA polymerase gamma assessed as amplitude of excision of compound from correctly paired DNA primer during fast phase of excision.
The species named for assay [17] is Homo sapiens. Briefly: Activity of human wild type DNA polymerase gamma assessed as rate of excision of compound from 3'-frayed DNA primer with 8 mispaired bases at 3' end during fast phase of excision.
For assay [18], the species on record is Homo sapiens. Briefly: Activity of human wild type DNA polymerase gamma assessed as amplitude of excision of compound from 3'-frayed DNA primer with 8 mispaired bases at 3' end during fast phase of excision.
Assay [19] is filed under the species Homo sapiens. Description: Activity of human wild-type DNA polymerase gamma assessed as rate of excision of compound from correctly paired DNA primer during fast phase of excision in presence of 100 uM dNTPs.
The species named for assay [20] is Homo sapiens. Description: Activity of human wild type DNA polymerase gamma assessed as amplitude of excision of compound from correctly paired DNA primer during fast phase of excision in presence of 100 uM dNTPs.
Assay [21] is filed under the species Homo sapiens. Briefly: Activity of human wild type DNA polymerase gamma assessed as rate of excision of compound from 3'-frayed DNA primer with 8 mispaired bases at 3' end during fast phase of excision in presence of 100 uM dNTPs.
For assay [22], the species on record is Homo sapiens. Description: Activity of human wild type DNA polymerase gamma assessed as amplitude of excision of compound from 3'-frayed DNA primer with 8 mispaired bases at 3' end during fast phase of excision in presence of 100 uM dNTPs.
Assay [23] concerns Human alphaherpesvirus 1. Description: Activity of wild type HSV1 DNA polymerase UL42 assessed as rate of excision of compound from correctly paired DNA primer during slow phase of excision.
Assay [24] has as its system Human alphaherpesvirus 1. Description: Activity of wild type HSV1 DNA polymerase UL42 assessed as amplitude of excision of compound from correctly paired DNA primer during slow phase of excision.
Assay [25] relates to Human alphaherpesvirus 1. Briefly: Activity of wild type HSV1 DNA polymerase UL42 assessed as rate of excision of compound from 3'-frayed DNA primer with 8 mispaired bases at 3' end during slow phase of excision.
Assay [26] has as its system Human alphaherpesvirus 1. Briefly: Activity of wild type HSV1 DNA polymerase UL42 assessed as amplitude of excision of compound from 3'-frayed DNA primer with 8 mispaired bases at 3' end during slow phase of excision.
The species entered for assay [27] is Homo sapiens. Briefly: Activity of human wild type DNA polymerase gamma assessed as rate of excision of compound from correctly paired DNA primer during slow phase of excision.
The species named for assay [28] is Homo sapiens. Briefly: Activity of human wild type DNA polymerase gamma assessed as amplitude of excision of compound from correctly paired DNA primer during slow phase of excision.
The species named for assay [29] is Homo sapiens. Briefly: Activity of human wild-type DNA polymerase gamma assessed as rate of excision of compound from 3'-frayed DNA primer with 8 mispaired bases at 3' end during slow phase of excision.
Assay [30] is filed under the species Homo sapiens. Description: Activity of human wild-type DNA polymerase gamma assessed as amplitude of excision of compound from 3'-frayed DNA primer with 8 mispaired bases at 3' end during slow phase of excision.

Here are results for five compounds from ChEMBL document CHEMBL1156481, “Enzymatic therapeutic index of acyclovir. Viral versus human polymerase gamma specificity” (J Biol Chem, 2007).

Each structure is given as a SMILES string.

In general, Kd refers to the equilibrium constant for the complex coming apart. For the compound `Nc1nc2c(ncn2[C@H]2C[C@H](O)[C@@H](COP(=O)(O)OP(=O)(O)OP(=O)(O)O)O2)c(=O)[nH]1` [DEOXYGUANOSINE TRIPHOSPHATE], the K in the assay with Human alphaherpesvirus 1 [1] was found to be 640 s⁻¹; in assay [4], 37 s⁻¹. Moreover, the Kd in assay [2] and in assay [6] was 0.8 µM throughout. For the same compound, the results for the Ratio (in the assay with Human alphaherpesvirus 1 [3]; in assay [5]) were 80 µM⁻¹ s⁻¹ and 45 µM⁻¹ s⁻¹, respectively.

Regarding `Nc1nc(=O)c2ncn(COCCOP(=O)(O)O)c2[nH]1`, the Activity was 5.1 ×10⁻⁴ /s with Human alphaherpesvirus 1 [7]; 86 nM with Human alphaherpesvirus 1 [8]; over 0.3 s⁻¹ with Human alphaherpesvirus 1 [9]; 90 nM in the assay with Human alphaherpesvirus 1 [10]; 2 ×10⁻⁴ /s in the assay with Human alphaherpesvirus 1 [11]; 85 nM with Human alphaherpesvirus 1 [12]. Also, the Activity in the assay with Human alphaherpesvirus 1 [13] is over 0.3 s⁻¹; in the assay with Human alphaherpesvirus 1 [14] it was 90 nM; in the assay filed under Homo sapiens [15], 2.1 ×10⁻³ /s; in the assay filed under Homo sapiens [16], 97 nM; in the assay listed under Homo sapiens [17], 1.3 ×10⁻³ /s; in the assay filed under Homo sapiens [18], 94 nM. For the same compound, the Activity in the assay listed under Homo sapiens [19] turned out to be 9.2 ×10⁻⁵ /s; in the assay filed under Homo sapiens [20], 91 nM; in the assay filed under Homo sapiens [21], 3 ×10⁻⁴ /s; in the assay listed under Homo sapiens [22], 90 nM.

Turning to `Cc1cn([C@H]2C[C@H](O)[C@@H](COP(=O)(O)OP(=O)(O)OP(=O)(O)O)O2)c(=O)[nH]c1=O`, the K in the assay on Human alphaherpesvirus 1 [1] was 137 s⁻¹. Moreover, in the assay with Human alphaherpesvirus 1 [3], the Ratio is 45 µM⁻¹ s⁻¹.

Turning to `Nc1nc2c(ncn2COCCOP(=O)(O)OP(=O)(O)OP(=O)(O)O)c(=O)[nH]1` [ACYCLOVIR TRIPHOSPHATE], the K in the assay on Human alphaherpesvirus 1 [1] was 10.1 s⁻¹; in assay [4] it was 1.03 s⁻¹. Further, the Kd in [2] and in assay [6] was 6 µM in each case. In addition, the Ratio with Human alphaherpesvirus 1 [3] was 1.7 µM⁻¹ s⁻¹; in assay [5], 0.17 µM⁻¹ s⁻¹.

As to `Nc1nc(O)c2ncn([C@H]3C[C@H](O)[C@@H](COP(=O)(O)O)O3)c2n1`, the Activity in the assay on Human alphaherpesvirus 1 [7] came to 12 s⁻¹; in the assay on Human alphaherpesvirus 1 [8] it was 11 nM; in the assay with Human alphaherpesvirus 1 [23] it was 0.25 s⁻¹; with Human alphaherpesvirus 1 [24], 77 nM; in the assay with Human alphaherpesvirus 1 [9], 125 s⁻¹; with Human alphaherpesvirus 1 [10], 65 nM. For the same compound, the Activity with Human alphaherpesvirus 1 [25] turned out to be 1.3 s⁻¹; in the assay on Human alphaherpesvirus 1 [26], 24 nM; in the assay filed under Homo sapiens [15] it was 0.45 s⁻¹; in the assay listed under Homo sapiens [16], 16 nM; in the assay listed under Homo sapiens [27], 0.02 s⁻¹; in the assay filed under Homo sapiens [28], 74 nM. The Activity in the assay filed under Homo sapiens [17] worked out at 2.6 s⁻¹; in the assay filed under Homo sapiens [18], 16 nM; in the assay filed under Homo sapiens [29], 0.27 s⁻¹; in the assay filed under Homo sapiens [30] it was 27 nM.
